The subject of one series is B. cenocepacia J2315. The experiment in a line: MIC, 2-fold microdilution, resazurin method. It counts as cell-based, Burkholderia cenocepacia. Particulars: for MIC: Burkholderia cenocepacia; for activity compared with C109, in words: SAR statements, against both bacteria and the purified enzyme. The method, then:
(§1) Burkholderia cenocepacia strains, Escherichia coli ATCC 25922, Pseudomonas aeruginosa PAO1, and Staphylococcus aureus ATCC 25923 were grown in Luria-Bertani (LB) medium (Difco), if not differently specified, with shaking at 200 rpm, or on LB agar, at 37°C.
(§2) The microtiter plates were incubated at 37°C for 48 (for B. cenocepacia) or 24 h (for all the other strains) and growth was determined by the resazurin method (Martin et al., [2006]). A solution of resazurin sodium salt (Sigma Aldrich) was prepared at 0.01% in distilled water and filter-sterilized. Thirty microliter of resazurin solution were added to each well after 1 or 2 days of incubation at 37°C, and the microtiters were re-incubated at the same temperature for 4 h. The MIC was defined as the lowest concentration of the drug that prevented a change in color from blue to pink, which indicates bacterial growth.
(§3) Three independent biological replicates were used for each MIC determination.
(In general: In broth dilution the organism is exposed to a series of concentrations in liquid medium.)

The subject of a further series is E. coli ATCC 25922. The experiment in a line: MIC, 2-fold microdilution, resazurin method. Type of series: cell-based. Particulars: Escherichia coli, ATCC25922. As for the experimental part: as §1, §2, §3
A further series has as its system P. aeruginosa PAO1. Put plainly: MIC, 2-fold microdilution, resazurin method. It counts as cell-based. Particulars: Pseudomonas aeruginosa, PAO1. As for the experimental part: as §1, §2, §3
Another series relates to S. aureus ATCC 25923. The experiment in a line: MIC, 2-fold microdilution, resazurin method. Particulars: for spectrum of activity, in words: S. aureus vs Gram-negative species; for MIC: Staphylococcus aureus, ATCC25923. Type of series: cell-based, Staphylococcus aureus. The method, then: as §1, §2, §3
Series [1] has as its target Burkholderia cenocepacia purified FtsZ protein (Burkholderia cenocepacia, UniProt B4E5Y7). The experiment in a line: biochemical. Type of series: biochemical. Particulars: for Inhibition of Bc FtsZ At 100 μM: 100 μM compound; for Inhibition of Bc FtsZ At 100 μM / Inhibits B. cenocepacia FtsZ GTPase at 100µM?: Yes/No; for Inhibits B. cenocepacia FtsZ GTPase at 100µM?: Supplementary Table 1. The method, then:
All the recombinant FtsZ proteins were expressed at 20°C overnight in E. coli BL21(DE3) cells, upon induction with 0.5 mM IPTG, and purified using the same protocol assessed for the wild-type B. cenocepacia FtsZ (Hogan et al., [2018]).
GTPase enzyme activity was determined using a pyruvate kinase/L-lactic dehydrogenase (PK/LDH) spectrophotometric coupled assay (Ingerman and Nunnari, [2005]). The assays were performed at 30°C, in a reaction mixture containing […] Hepes pH 7.5, 5 mM MgCl2, 5 mM KCl, 10 U PK/LDH, 0.25 mM NADH, 0.25 mM PEP, and 5–10 μM FtsZ, and initiated by the addition of 0.5 mM GTP. Alternatively, GTPase activity was determined by measuring the release of phosphate using the malachite green assay (Baykov et al., [1988]).
(1) A[I]=A[0]×(1-[I]/[I]+IC50)
where A[I] is the enzyme activity at inhibitor concentration [I] and A[0] is the enzyme activity without inhibitor.

The mark [2] stands for this setting: J2315, LB, 48 h, read-out: MIC B. cenocepacia J2315.
Setting [3] is: J2315, Supplementary Table 1, read-out: MIC (µg/ml) B. cenocepacia J2315.
Where [4] appears, read: LB, 24 h, read-out: MIC E. coli 25922.
Where [5] appears, read: Supplementary Table 1, read-out: MIC (µg/ml) E. coli 25922.
Setting [6] is: LB, 24 h, read-out: MIC P. aeruginosa PAO1.
Where [7] appears, read: Supplementary Table 1, read-out: MIC (µg/ml) P. aeruginosa PAO1.
Where [8] appears, read: LB, 24 h, read-out: MIC S. aureus 25923.
The mark [9] stands for this setting: Supplementary Table 1, read-out: MIC (µg/ml) S. aureus 25923.

≈ marks a conversion by molar mass, not a printed value. Where two headings read alike, the source gives them in different places.

One may read the IC50 as the concentration that gives 50% inhibition. Usually melting point stands for the temperature, or range, at which the solid turns liquid.

Chain of Burkholderia cenocepacia purified FtsZ protein (B4E5Y7 entry or part of it): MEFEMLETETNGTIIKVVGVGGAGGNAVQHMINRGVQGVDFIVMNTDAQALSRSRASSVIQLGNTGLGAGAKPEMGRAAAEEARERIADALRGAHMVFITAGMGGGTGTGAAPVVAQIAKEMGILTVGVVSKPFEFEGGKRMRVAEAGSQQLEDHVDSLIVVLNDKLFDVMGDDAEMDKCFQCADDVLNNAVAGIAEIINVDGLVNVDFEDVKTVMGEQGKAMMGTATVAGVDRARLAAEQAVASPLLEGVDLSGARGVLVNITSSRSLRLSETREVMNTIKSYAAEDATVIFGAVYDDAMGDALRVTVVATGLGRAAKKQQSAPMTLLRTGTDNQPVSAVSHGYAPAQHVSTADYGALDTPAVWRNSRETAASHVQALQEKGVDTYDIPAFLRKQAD

`COc1cc(SC#N)c2nsnc2c1[N+](=O)[O-]` [compound 11126009] gave a melting point of 143 to 145 °C. The MIC in the series with B. cenocepacia J2315 (setting [2]) is over 128 µg/mL. The MIC in the series on B. cenocepacia J2315 (setting [3]) was over 128 µg/mL. Also, the MIC in the series with E. coli ATCC 25922 (setting [4]) is over 512 µg/mL. Moreover, the MIC in the series with E. coli ATCC 25922 (setting [5]) is over 512 µg/mL. In the series with P. aeruginosa PAO1 (setting [6]), the MIC was over 128 µg/mL. Besides, the MIC with P. aeruginosa PAO1 (setting [7]) was over 128 µg/mL. Further, in the series on S. aureus ATCC 25923, the “spectrum of activity, in words” value is listed as “showed activity only against S. aureus”. Further, the MIC with S. aureus ATCC 25923 (setting [8]) was found to be 8 µg/mL (≈ 29.8 µM). The MIC in the series with S. aureus ATCC 25923 (setting [9]) worked out at 8 µg/mL (≈ 29.8 µM). Further, in series [1], the IC50 is 4 µM, the “Inhibition of Bc FtsZ At 100 μM” value is listed as “Yes” and the “Inhibits B. cenocepacia FtsZ GTPase at 100µM?” value is “Yes”.
In the case of `O=[N+]([O-])c1c(SC(=S)N2CCSCC2)ccc2nsnc12` [compound 11126015], the melting point lay in the range of 140 to 142 °C. Further, the MIC in the series on B. cenocepacia J2315 (setting [2]) was over 128 µg/mL. The MIC with B. cenocepacia J2315 (setting [3]) is over 128 µg/mL. Also, the MIC in the series with E. coli ATCC 25922 (setting [4]) is over 512 µg/mL. Besides, the MIC in the series with E. coli ATCC 25922 (setting [5]) was over 512 µg/mL. Further, the MIC in the series on P. aeruginosa PAO1 (setting [6]) was over 128 µg/mL. In addition, the MIC in the series on P. aeruginosa PAO1 (setting [7]) was over 128 µg/mL. The “spectrum of activity, in words” value in the series on S. aureus ATCC 25923 was “showed activity only against S. aureus”. In addition, the MIC in the series with S. aureus ATCC 25923 (setting [8]) amounted to 32 µg/mL (≈ 89.3 µM). The MIC in the series with S. aureus ATCC 25923 (setting [9]) was 32 µg/mL (≈ 89.3 µM). For the same compound, in series [1], 36 µM corresponded to half-maximal inhibition (IC50), the “Inhibition of Bc FtsZ At 100 μM” value was “Yes” and the “Inhibits B. cenocepacia FtsZ GTPase at 100µM?” value was “Yes”.
With `CCOC(=O)CNc1ccc2nsnc2c1[N+](=O)[O-]` [compound 11726042], the melting point fell in the range of 169 to 171 °C. In the series on B. cenocepacia J2315 (setting [2]), the MIC is over 256 µg/mL. The MIC in the series on B. cenocepacia J2315 (setting [3]) was over 256 µg/mL. In the series with B. cenocepacia J2315, the “activity compared with C109, in words” value is “completely loss of activity”. In the series with E. coli ATCC 25922 (setting [4]), the MIC was over 512 µg/mL. In the series with E. coli ATCC 25922 (setting [5]), the MIC is over 512 µg/mL. Also, the MIC with S. aureus ATCC 25923 (setting [8]) is over 256 µg/mL. The MIC with S. aureus ATCC 25923 (setting [9]) was over 256 µg/mL. Moreover, in series [1], the “Inhibition of Bc FtsZ At 100 μM” value is “No” and the “Inhibits B. cenocepacia FtsZ GTPase at 100µM?” value is “No”.
In turn, `CCOC(=O)COc1ccc2nsnc2c1[N+](=O)[O-]` [compound 11726041] returned a melting point of 131 to 133 °C. Further, in the series with B. cenocepacia J2315 (setting [2]), the MIC is over 256 µg/mL. Also, the MIC with B. cenocepacia J2315 (setting [3]) is over 256 µg/mL. For the same compound, in the series with B. cenocepacia J2315, the “activity compared with C109, in words” value was “completely loss of activity”. In the series with E. coli ATCC 25922 (setting [4]), the MIC was over 512 µg/mL. Further, the MIC in the series with E. coli ATCC 25922 (setting [5]) is over 512 µg/mL. In addition, the MIC with S. aureus ATCC 25923 (setting [8]) was over 256 µg/mL. In the series on S. aureus ATCC 25923 (setting [9]), the MIC was over 256 µg/mL. Also, in series [1], the “Inhibition of Bc FtsZ At 100 μM” value is recorded as “No” and the “Inhibits B. cenocepacia FtsZ GTPase at 100µM?” value is “No”.
Take `N#CSc1cc(-c2ccc([N+](=O)[O-])cc2)c2nsnc2c1[N+](=O)[O-]` [compound 11026176]: the MIC in the series with B. cenocepacia J2315 (J2315, 48 h, read-out: MIC B. cenocepacia J2315) is over 512 µg/mL; in the series on B. cenocepacia J2315 (J2315, read-out: MIC (µg/ml) B. cenocepacia J2315), over 512 µg/mL; in the series with E. coli ATCC 25922 (setting [4]) it was over 512 µg/mL; in the series with E. coli ATCC 25922 (setting [5]) it was over 512 µg/mL; in the series on P. aeruginosa PAO1 (setting [6]), over 128 µg/mL; with P. aeruginosa PAO1 (setting [7]), over 128 µg/mL. Also, the MIC with S. aureus ATCC 25923 (setting [8]) and in the series on S. aureus ATCC 25923 (setting [9]) was 4 µg/mL (≈ 11.1 µM) each time. For the same compound, the “spectrum of activity, in words” value with S. aureus ATCC 25923 is reported as “showed activity only against S. aureus”. For the same compound, the IC50 in series [1] was determined as 17 µM. The “Inhibition of Bc FtsZ At 100 μM” value in series [1] is reported as “Yes”. Further, the “Inhibits B. cenocepacia FtsZ GTPase at 100µM?” value in series [1] was “Yes”.
In turn, `O=C(O)CSc1ccc2nsnc2c1[N+](=O)[O-]` [compound 11426177] registered a melting point of 215 to 217 °C. In addition, the MIC in the series on B. cenocepacia J2315 (setting [2]) was over 128 µg/mL. The MIC with B. cenocepacia J2315 (setting [3]) is over 128 µg/mL. The “activity compared with C109, in words” value in the series on B. cenocepacia J2315 is recorded as “not active against B. cenocepacia”. Moreover, the MIC with E. coli ATCC 25922 (setting [4]) was over 512 µg/mL. Besides, the MIC in the series on E. coli ATCC 25922 (setting [5]) is over 512 µg/mL. Besides, the MIC in the series with S. aureus ATCC 25923 (setting [8]) was determined as 256 µg/mL (≈ 944 µM). Besides, the MIC in the series with S. aureus ATCC 25923 (setting [9]) turned out to be 256 µg/mL (≈ 944 µM). For the same compound, in series [1], the “Inhibition of Bc FtsZ At 100 μM” value was “No” and the “Inhibits B. cenocepacia FtsZ GTPase at 100µM?” value is on record as “No”.

(Values after PMC7154053, “Chemical, Metabolic, and Cellular Characterization of a FtsZ Inhibitor Effective Against Burkholderia cenocepacia” (Frontiers in Microbiology, 2020).)
